The text below walks through data of ChEMBL document CHEMBL3046674, “A new fatty alcohol from Terminalia arjuna leaves with antileishmanial activity” (Med Chem Res, 2013).

Each structure is given as a SMILES string. Converted amounts (≈) assume the structure as drawn.

For this assay, the system named is Leishmania donovani. The assay is described as follows: Antileishmanial activity against promastigote form of Leishmania donovani after 48 hrs by Alamar Blue assay. It counts as functional, organism-based. (In general: Resazurin is reduced to fluorescent resorufin, in cell work by metabolically active cells.)
Take `N=C(N)c1ccc(OCCCCCOc2ccc(C(=N)N)cc2)cc1` [PENTAMIDINE]: the 90% effect level (IC90) was put at 2.03 µg/mL (≈ 5.96 µM). In the case of `CC(=O)OC/C=C(\C)CC(C)CC(C)CCCCCCCCC(C)C` (configuration not stated), the midpoint of inhibition, the IC50, lay at 2 µg/mL (≈ 5.67 µM) and the 90% effect level (IC90) was put at 6 µg/mL (≈ 17 µM). The like results for `C/C(=C\CO)CC(C)CC(C)CCCCCCCCC(C)C` (configuration not stated) were, in that order, 9 µg/mL (≈ 29 µM) and 30 µg/mL (≈ 96.6 µM).

In the case of `C[C@@H]1[C@H](O)[C@@H](C)/C=C/C=C/C=C/C=C/C=C/C=C/C=C/[C@H](O[C@@H]2O[C@H](C)[C@@H](O)[C@H](N)[C@@H]2O)C[C@@H]2O[C@](O)(C[C@@H](O)C[C@@H](O)[C@H](O)CC[C@@H](O)C[C@@H](O)CC(=O)O[C@H]1C)C[C@H](O)[C@H]2C(=O)O` [AMPHOTERICIN B], it took 0.47 µg/mL (≈ 0.509 µM) to reach half-maximal inhibition (IC50) and the concentration for an effect of 90% (IC90) was 0.65 µg/mL (≈ 0.703 µM).

What is called IC90 is the concentration at which the effect reaches the 90% level. Read a high IC90 as a need for much substance. As usually defined, the IC50 is the point on the concentration scale where inhibition reaches its midpoint. Lower therefore signals greater potency in that assay.
